# Data published in ChEMBL document CHEMBL1201862, “PubChem BioAssay data set” (2004).
# Active and inactive are the calls of the source.
# Experiments:
# Cytochrome P450 2C19 = Cytochrome P450 2C19 (Homo sapiens, UniProt P33261); assay: Cytochrome panel assay with activity outcomes. Panel member name: p450-cyp2c19 Compounds with AC50 equal or less than 10 uM are considered active; format: functional
# Cytochrome P450 2C9 = Cytochrome P450 2C9 (Homo sapiens, UniProt P11712)
# HEK293 [1] = assay: inhibitors of LMP1-driven NF-kB reporter, dose response, cell-based, HEK293, luciferase, cherry-pick (AID 588343); format: functional; details: Homo sapiens
# [2] = biological target: T1, Heat shock factor protein 1 (Mus musculus, UniProt P38532); assay: HSF1 potentiators in luciferase reporter cells, confirmation, cell-based, NIH3T3, luminescence, dose retest (AID 435004); format: functional;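 note: stress induced by proteasome inhibitor MG132 added 30 min after compound; luciferase reporter driven by HSF1 response element in NIH3T3 cells; actives raise luminescence as potentiators of the MG132 stress response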
# T1 sequence (P38532 whole entry): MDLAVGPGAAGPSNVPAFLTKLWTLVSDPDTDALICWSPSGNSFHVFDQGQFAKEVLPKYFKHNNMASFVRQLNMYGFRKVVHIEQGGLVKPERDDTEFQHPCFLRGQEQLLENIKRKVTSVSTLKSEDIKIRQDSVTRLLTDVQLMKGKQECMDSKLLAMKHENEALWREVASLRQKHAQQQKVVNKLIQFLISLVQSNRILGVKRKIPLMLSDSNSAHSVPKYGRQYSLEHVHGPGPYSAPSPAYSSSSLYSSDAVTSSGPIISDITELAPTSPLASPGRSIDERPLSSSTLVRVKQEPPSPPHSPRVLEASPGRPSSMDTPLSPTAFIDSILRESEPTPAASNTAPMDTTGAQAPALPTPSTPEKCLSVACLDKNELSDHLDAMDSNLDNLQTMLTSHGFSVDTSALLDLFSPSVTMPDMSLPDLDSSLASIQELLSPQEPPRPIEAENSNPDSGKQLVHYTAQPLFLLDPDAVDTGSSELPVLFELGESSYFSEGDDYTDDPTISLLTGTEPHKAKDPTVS
# Paired box protein Pax-8 = Paired box protein Pax-8 (Homo sapiens, UniProt Q06710); assay: inhibitors of PAX8-driven TPO luciferase reporter, dose response, RMG-I cells, cherry-pick (AID 687027); format: functional, cell-based;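 note: luciferase reporter driven by Pax8 target thyroperoxidase promoter measured by SteadyGlo luminescence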
# [3] = Luminescence Cell-Based Dose Response HTS to Identify Activators of Luciferase Translation or Activity in H4 […] Cells. [Related pubchem assays: 1829 (Project Summary), 1814 (Primary HTS)]; format: functional
# [4] = biological target: T2, Replicative DNA helicase DnaB (Mycobacterium tuberculosis, UniProt P9WMR3); assay: DnaB intein splicing inhibitors, dose response, biochemical, cell-free fluorescence (AID 449749); format: functional
# T2 sequence (P9WMR3 whole entry): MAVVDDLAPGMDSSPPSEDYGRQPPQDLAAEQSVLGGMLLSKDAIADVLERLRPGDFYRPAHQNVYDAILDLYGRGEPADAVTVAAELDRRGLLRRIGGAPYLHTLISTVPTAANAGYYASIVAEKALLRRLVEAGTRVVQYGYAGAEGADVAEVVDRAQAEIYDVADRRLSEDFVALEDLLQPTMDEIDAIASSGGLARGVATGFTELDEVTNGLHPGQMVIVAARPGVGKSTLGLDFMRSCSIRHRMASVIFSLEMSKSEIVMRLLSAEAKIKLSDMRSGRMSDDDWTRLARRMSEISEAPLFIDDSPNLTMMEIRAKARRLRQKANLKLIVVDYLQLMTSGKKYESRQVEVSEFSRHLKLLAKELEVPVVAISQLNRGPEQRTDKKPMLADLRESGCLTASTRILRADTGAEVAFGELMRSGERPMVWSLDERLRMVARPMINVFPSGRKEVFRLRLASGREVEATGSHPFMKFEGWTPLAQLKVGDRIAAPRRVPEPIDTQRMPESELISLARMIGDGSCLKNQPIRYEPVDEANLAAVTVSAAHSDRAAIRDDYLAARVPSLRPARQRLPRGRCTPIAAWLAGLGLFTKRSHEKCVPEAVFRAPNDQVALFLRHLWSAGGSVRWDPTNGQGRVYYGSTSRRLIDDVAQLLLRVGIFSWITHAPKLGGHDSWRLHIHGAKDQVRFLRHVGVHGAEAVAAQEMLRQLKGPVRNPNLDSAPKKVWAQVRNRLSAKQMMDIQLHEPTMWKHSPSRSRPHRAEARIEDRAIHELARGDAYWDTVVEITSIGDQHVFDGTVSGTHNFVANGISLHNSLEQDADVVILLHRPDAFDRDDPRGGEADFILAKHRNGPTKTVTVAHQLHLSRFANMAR
# [5] = biological target: Heat shock protein HSP 90-alpha (Homo sapiens, UniProt P07900); format: functional, organism-based
# Protein RecA = biological target: T3, Protein RecA (Mycobacterium tuberculosis, UniProt P9WHJ3); assay: Fluorescence Cell-Free Homogeneous Dose Retest to Identify Inhibitors of RecA-Intein Splicing Activity. [Related pubchem assays (depositor defined):AID2097, AID2223, AID489010, AID492950]; format: functional
# T3 sequence (P9WHJ3 whole entry): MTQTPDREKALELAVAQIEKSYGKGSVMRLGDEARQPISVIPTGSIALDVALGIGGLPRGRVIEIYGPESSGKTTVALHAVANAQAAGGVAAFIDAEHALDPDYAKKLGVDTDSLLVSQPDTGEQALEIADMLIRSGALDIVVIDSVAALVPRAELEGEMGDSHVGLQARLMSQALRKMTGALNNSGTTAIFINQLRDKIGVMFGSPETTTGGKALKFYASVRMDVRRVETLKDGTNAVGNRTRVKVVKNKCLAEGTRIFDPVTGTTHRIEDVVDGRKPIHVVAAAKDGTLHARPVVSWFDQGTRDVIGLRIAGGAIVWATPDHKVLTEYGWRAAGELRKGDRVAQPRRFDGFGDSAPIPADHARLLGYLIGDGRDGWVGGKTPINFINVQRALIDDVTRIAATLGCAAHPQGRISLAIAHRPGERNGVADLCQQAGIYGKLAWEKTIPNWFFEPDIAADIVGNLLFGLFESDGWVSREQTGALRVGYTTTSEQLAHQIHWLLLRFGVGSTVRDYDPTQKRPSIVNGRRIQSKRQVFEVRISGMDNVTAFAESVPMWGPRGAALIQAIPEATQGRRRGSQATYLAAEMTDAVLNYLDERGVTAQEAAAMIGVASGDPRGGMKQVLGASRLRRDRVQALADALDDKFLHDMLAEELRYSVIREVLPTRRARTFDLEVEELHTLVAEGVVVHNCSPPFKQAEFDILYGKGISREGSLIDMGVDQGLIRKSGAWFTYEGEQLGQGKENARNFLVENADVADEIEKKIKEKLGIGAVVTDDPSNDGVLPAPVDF
# [6] = cytotoxicity toward NIH3T3 fibroblasts, dose response, counter-screen, cell-based, ATP luminescence, mouse fibroblasts (AID 2010); format: functional;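 note: cells exposed to compound for about 90 hours before reading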
# [7] = inhibitors of intracellular T. cruzi replication, confirmation, NIH3T3 host cells, beta-gal luminescence (AID 2044); format: functional, cell-based;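 note: intracellular parasites grown in NIH/3T3 mouse fibroblasts as host cells; luminescent beta-galactosidase reporter signal from transgenic T. cruzi replicating inside host cells; inhibitors lower the luminescence signal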
# SN12K1 = assay: cells; format: functional; details: Homo sapiens
# Cytochrome P450 2D6 = Cytochrome P450 2D6 (Homo sapiens, UniProt P10635);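 note: CYP2D6 member of a cytochrome P450 panel assay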
# Protein skinhead-1 = biological target: T4, Protein skinhead-1 (Caenorhabditis elegans, UniProt P34707); format: functional
# T4 sequence (P34707 whole entry): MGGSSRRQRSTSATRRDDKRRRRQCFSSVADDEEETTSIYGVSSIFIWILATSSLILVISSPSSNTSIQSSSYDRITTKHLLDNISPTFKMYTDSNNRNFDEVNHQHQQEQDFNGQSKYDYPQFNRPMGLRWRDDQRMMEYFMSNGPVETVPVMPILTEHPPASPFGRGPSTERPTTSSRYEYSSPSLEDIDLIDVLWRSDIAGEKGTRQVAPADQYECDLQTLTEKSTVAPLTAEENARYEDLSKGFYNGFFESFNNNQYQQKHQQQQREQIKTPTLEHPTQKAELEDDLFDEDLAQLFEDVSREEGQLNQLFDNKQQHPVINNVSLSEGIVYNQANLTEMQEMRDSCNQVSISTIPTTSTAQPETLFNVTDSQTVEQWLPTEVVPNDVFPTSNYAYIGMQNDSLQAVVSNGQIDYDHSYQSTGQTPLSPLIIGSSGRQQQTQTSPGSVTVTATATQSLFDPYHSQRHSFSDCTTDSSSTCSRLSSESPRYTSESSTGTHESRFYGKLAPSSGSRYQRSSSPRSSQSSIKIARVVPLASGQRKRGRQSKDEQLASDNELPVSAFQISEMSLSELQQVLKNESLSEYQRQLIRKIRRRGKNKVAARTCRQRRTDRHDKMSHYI
# [8] = biological target: G-protein coupled receptor 55 (Homo sapiens, UniProt Q9Y2T6); assay: GPR55 antagonists blocking LPI-driven arrestin recruitment, primary screen, imaging, U2OS, beta-arrestin-GFP, LPI agonist (AID 2013); format: functional;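 note: antagonist potency measured as reduced agonist-driven arrestin aggregation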
# Cytochrome P450 3A4 = Cytochrome P450 3A4 (Homo sapiens, UniProt P08684);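 note: CYP3A4 tested as one member of a cytochrome P450 panel screen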
# HEK293 [9] = assay: NOD2 signaling inhibitors in MDP-stimulated cells, cell-based, uHTS, luminescence (AID 2001); format: functional; details: Homo sapiens
# HEK293 [10] = assay: cells; format: functional, cell-based; details: Homo sapiens
# HEK293 [11] = assay: cells; format: functional, cell-based; details: Homo sapiens; remark: listed apart in the source
# HEK293 [12] = assay: cells; format: functional, cell-based; details: Homo sapiens; remark: listed apart in the source
# [13] = Luminescence Cell-Based Dose Retest to Confirm Inhibitors of Cancer Stem Cells. [Related pubchem assays (depositor defined):AID2717, AID2721]; format: functional, Homo sapiens; details: Homo sapiens
# HEK293 [14] = assay: NOD1 signaling inhibitors, primary screen, cell-based, luminescence, uHTS (AID 1578); format: functional; details: Homo sapiens
# [15] = biological target: Nucleotide-binding oligomerization domain-containing protein 2 (Homo sapiens, UniProt Q9HC29); assay: NOD2 signaling inhibitors, cell-based, luminescence, uHTS, HEK293 (AID 1566); format: functional
# [16] = biological target: T5, Calpain-2 catalytic subunit (Sus scrofa, UniProt P43367); assay: pig calpain II inhibitor potency, dose response, biochemical, fluorogenic peptide substrate (AID 1420); format: functional
# T5 sequence (P43367 whole entry): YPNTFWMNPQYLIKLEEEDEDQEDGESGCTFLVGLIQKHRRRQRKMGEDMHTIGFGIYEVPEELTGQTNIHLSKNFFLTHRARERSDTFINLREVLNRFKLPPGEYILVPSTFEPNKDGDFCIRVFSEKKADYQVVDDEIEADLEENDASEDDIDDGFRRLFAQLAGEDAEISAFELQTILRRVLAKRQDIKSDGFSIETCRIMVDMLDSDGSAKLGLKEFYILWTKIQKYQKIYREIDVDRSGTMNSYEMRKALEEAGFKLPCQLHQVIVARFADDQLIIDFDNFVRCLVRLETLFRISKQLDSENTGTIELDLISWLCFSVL
# [17] = inhibitors of HIV Env-driven cell fusion, dose response, cherry-pick (AID 652057); format: functional, cell-based
# Cytochrome P450 2C9, sequence (P11712 whole entry): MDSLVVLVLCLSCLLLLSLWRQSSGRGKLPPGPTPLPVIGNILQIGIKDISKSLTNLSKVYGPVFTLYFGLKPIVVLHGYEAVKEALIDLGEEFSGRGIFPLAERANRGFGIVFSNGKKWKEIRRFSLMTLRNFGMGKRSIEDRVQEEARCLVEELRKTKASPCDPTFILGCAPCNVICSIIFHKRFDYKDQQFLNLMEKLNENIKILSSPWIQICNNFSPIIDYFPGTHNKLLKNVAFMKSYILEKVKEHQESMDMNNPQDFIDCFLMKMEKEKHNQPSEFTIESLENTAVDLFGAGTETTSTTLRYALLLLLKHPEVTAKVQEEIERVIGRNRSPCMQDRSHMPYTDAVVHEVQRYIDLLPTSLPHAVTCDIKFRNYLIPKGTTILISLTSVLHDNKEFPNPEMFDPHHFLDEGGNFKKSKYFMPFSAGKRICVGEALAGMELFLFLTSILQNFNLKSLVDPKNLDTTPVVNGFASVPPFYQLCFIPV
# Cytochrome P450 2D6, sequence (P10635 whole entry): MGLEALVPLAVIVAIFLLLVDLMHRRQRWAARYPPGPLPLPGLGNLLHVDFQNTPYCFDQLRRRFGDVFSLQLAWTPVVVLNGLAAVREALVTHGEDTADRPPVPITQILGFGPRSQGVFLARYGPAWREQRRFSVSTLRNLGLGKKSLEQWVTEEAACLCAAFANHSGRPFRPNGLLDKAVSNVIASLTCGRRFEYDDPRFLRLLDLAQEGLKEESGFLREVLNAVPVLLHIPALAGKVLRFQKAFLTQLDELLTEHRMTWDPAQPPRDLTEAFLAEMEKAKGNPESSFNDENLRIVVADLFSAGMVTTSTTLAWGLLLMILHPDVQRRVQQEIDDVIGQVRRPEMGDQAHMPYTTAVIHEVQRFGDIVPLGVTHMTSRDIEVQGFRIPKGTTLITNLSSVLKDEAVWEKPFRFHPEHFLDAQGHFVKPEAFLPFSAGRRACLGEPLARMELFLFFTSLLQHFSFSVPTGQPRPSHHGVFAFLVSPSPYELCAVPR
# Cytochrome P450 3A4, sequence (P08684 whole entry): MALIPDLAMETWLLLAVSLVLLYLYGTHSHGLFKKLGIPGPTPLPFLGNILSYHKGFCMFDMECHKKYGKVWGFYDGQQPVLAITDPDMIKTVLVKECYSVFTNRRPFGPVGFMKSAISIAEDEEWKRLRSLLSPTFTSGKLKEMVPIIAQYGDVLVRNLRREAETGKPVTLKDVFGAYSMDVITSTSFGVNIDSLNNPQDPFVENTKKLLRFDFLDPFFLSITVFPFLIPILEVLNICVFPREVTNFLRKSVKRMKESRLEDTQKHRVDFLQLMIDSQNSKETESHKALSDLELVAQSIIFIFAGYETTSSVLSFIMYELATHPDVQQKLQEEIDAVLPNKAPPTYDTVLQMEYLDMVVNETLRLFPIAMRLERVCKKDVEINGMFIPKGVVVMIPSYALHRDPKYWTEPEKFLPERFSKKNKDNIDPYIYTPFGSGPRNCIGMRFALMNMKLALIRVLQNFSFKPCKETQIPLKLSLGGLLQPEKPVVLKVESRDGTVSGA
# Nucleotide-binding oligomerization domain-containing protein 2, sequence (Q9HC29 whole entry, the tested form may be a part): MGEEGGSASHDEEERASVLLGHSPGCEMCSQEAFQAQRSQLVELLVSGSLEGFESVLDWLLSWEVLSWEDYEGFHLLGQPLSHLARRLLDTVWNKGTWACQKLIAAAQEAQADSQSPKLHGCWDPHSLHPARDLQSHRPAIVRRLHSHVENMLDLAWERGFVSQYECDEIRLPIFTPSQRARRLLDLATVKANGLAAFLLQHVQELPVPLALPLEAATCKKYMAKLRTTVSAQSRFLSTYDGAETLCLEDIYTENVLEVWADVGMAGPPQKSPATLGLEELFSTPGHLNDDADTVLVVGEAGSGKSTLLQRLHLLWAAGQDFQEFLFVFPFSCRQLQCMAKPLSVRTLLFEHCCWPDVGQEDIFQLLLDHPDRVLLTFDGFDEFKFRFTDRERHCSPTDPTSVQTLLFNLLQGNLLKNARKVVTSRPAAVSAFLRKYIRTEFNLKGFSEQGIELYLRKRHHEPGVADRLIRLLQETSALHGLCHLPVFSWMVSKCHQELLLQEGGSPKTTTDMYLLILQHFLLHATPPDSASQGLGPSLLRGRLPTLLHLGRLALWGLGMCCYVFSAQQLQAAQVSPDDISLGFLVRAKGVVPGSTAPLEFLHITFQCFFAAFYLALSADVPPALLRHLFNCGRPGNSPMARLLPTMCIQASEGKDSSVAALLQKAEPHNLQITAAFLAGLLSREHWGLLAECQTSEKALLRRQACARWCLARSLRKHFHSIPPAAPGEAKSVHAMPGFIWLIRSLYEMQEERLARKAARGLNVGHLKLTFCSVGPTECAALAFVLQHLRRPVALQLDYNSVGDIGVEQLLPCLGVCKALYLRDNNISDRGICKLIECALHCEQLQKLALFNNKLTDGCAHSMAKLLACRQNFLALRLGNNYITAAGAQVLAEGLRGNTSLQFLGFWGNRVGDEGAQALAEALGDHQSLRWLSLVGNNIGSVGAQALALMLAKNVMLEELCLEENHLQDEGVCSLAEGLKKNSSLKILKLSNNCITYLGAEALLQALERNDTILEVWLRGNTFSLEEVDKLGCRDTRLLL
# Cytochrome P450 2C19, sequence (P33261 whole entry): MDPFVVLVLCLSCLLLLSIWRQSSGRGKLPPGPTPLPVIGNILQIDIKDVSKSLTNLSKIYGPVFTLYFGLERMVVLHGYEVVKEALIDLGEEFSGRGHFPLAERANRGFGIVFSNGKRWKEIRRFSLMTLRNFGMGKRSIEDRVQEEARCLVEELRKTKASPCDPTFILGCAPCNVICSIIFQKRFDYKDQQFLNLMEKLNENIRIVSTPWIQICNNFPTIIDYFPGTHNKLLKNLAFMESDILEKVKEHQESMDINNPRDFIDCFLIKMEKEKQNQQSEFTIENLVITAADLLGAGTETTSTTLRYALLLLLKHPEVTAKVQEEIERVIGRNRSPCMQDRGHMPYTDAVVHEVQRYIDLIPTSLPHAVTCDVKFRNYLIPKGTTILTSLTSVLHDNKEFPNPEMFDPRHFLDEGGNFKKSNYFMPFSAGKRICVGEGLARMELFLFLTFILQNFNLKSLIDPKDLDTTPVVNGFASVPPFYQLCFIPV
# G-protein coupled receptor 55, sequence (Q9Y2T6 whole entry): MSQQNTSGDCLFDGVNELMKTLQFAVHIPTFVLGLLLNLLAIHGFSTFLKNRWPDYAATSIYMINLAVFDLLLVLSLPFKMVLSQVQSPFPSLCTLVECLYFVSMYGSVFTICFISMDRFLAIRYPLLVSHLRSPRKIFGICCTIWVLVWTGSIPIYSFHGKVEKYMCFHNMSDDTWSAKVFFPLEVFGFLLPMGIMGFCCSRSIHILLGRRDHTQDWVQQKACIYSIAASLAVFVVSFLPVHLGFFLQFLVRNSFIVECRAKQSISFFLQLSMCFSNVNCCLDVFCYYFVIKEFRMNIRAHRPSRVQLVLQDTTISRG
# Paired box protein Pax-8, sequence (Q06710 whole entry): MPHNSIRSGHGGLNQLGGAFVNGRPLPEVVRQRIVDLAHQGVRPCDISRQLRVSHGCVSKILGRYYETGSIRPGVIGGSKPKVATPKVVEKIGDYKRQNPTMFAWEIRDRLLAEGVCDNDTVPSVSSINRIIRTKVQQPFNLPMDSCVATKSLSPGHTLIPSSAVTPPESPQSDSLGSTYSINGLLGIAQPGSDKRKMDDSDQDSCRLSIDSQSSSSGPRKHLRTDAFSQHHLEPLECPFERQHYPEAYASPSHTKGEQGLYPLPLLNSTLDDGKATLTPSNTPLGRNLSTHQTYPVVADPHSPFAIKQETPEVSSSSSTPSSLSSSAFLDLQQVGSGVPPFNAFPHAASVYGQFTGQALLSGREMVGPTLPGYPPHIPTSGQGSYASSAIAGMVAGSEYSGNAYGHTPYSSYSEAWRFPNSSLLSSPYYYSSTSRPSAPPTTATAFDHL
smiles,measurement,setting,value
C#CCCCO/N=C1/[C@H]2O[C@@H]2[C@@H](O)[C@H]2[C@H]1CCn1c(=O)n(Cc3cc4c(cc3Cl)OCO4)c(=O)n12,AC50,Cytochrome P450 2C19,inconclusive
same,AC50,Cytochrome P450 2C9,inconclusive
O=[N+]([O-])c1ccc(N2CCN(Cc3cccc([N+](=O)[O-])c3)CC2)cc1,AC50,HEK293 [1],52.6 µM (active)
Cc1cc(Sc2nnc(N)s2)c2ccccc2n1,AC50,HEK293 [1],3.03 µM (active)
same,EC50,[2],14.6 µM (active)
same,AC50,Paired box protein Pax-8,4.58 µM (active)
COc1ccc(Nc2cnn(-c3nc4ccccc4s3)c(=O)c2Cl)cc1,EC50,[3],198 nM (active)
same,AC50,[4],> 380 µM (inactive)
same,AC50,[5],3.21 µM (active)
same,EC50,Protein RecA,4.01 µM (active)
COc1cc(C)nc(N2CCCC(C(=O)Nc3cc(Cl)ccc3OC)C2)n1 (configuration not stated),AC50,Cytochrome P450 2C9,inconclusive
O=C(Nc1ccc(Cl)c(Cl)c1)Nc1nc(-c2ccccc2)cs1,AC50,HEK293 [1],24.9 µM (active)
same,EC50,[6],> 60 µM (not active)
same,EC50,[7],1.52 µM (active)
C[C@]12CC[C@@H]3c4ccc(OC(=O)N(CCCl)CCCl)cc4CC[C@H]3[C@@H]1CC[C@@H]2O [ESTRAMUSTINE],GI50,SN12K1,25 nM (active)
Nc1nc(-c2ccccc2)c(-c2ccccc2)s1,AC50,Cytochrome P450 2C9,inconclusive
same,AC50,Cytochrome P450 2D6,15.8 µM (inconclusive)
CN1/C(=C/C(=O)CSc2ccccc2C(=O)O)C(C)(C)c2ccccc21,IC50,Protein skinhead-1,> 100 µM (inactive)
same,IC50,[8],3.44 µM (active)
O=C(NCCCN1CCOCC1)C1COc2ccccc2O1 (configuration not stated),AC50,Cytochrome P450 2C19; read-out: AC50,17.8 µM (inconclusive)
same,AC50,Cytochrome P450 3A4,14.1 µM (inconclusive)
same,AC50,Cytochrome P450 2C9,inconclusive
same,AC50,Cytochrome P450 2D6,7.94 µM (inconclusive)
O=C(c1cccc(C(F)(F)F)c1)N1CCC(O)(CS(=O)(=O)Cc2ccccc2)CC1,AC50,Cytochrome P450 3A4,3.16 µM (inconclusive)
same,AC50,Cytochrome P450 2C9,inconclusive
Cc1ccc(C(=O)NC(=C(Cl)Cl)S(=O)(=O)c2ccc(C)cc2)cc1,IC50,HEK293 [9],5.55 µM (active)
same,IC50,HEK293 [10],> 20 µM (inactive)
same,IC50,HEK293 [11],> 20 µM (inactive)
same,IC50,HEK293 [12],6.28 µM (active)
same,AC50,[13],4.39 µM (active)
same,EC50,HEK293 [14],2.46 µM (active)
same,EC50,[15],14.6 µM (active)
Cc1ccc(C(=O)N2CCN(c3ccccc3Cl)CC2)cc1[N+](=O)[O-],IC50,[16],> 50 µM (not active)
same,AC50,[5],4.18 µM (active)
Cc1ccc(NC(=O)CSc2ncnc3ccccc23)cc1S(=O)(=O)N1CCCCC1,IC50,HEK293 [9],1.73 µM (active)
same,IC50,HEK293 [10],> 20 µM (inactive)
same,IC50,HEK293 [11],6.83 µM (active)
same,IC50,HEK293 [12],1.81 µM (active)
same,EC50,HEK293 [14],4.43 µM (active)
same,EC50,[15],4.73 µM (active)
CCCCNC(=O)C[C@H]1C[C@@]2(C(=O)OC)C(=C[C@H](C(C)(C)C)O[C@@H]2C)N(Cc2ccc3c(c2)OCO3)C1=O,AC50,[17],19.8 µM (active)
Cc1ccc(CNC(=O)C2CC(c3ccccc3[N+](=O)[O-])=NO2)o1 (configuration not stated),AC50,Cytochrome P450 2C9,inconclusive
